Results reported in patent US20120101110A1, “Diaza-spiro[5.5]undecanes” (priority 2010, published 2012).

What was measured:
[1] = target: T1, human orexin 2 receptors (Homo sapiens, UniProt O43614); test: Calcium accumulation in cells (FLIPR), hOx2R; type: cell-based; settings: cells expressing human orexin 2 receptor; inhibition of orexin A-induced calcium accumulation; Cheng and Prusoff correction
T1 sequence (O43614 1-444): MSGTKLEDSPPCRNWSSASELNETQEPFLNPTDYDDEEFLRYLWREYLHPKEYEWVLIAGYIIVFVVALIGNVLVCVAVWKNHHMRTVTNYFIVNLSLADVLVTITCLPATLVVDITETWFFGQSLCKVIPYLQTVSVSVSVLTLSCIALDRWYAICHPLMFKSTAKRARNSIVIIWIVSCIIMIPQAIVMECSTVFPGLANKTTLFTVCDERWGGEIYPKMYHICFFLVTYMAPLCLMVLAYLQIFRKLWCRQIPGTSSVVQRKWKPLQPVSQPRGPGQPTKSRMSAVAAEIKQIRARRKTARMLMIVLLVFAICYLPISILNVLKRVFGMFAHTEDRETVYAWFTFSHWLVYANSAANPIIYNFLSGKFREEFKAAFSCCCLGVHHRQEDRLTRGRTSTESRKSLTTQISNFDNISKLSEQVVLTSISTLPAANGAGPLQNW
Description: Cells expressing human orexin 1 or human orexin 2 receptors, were seeded at 8,000 cells/well in 384 well black-walled clear bottom, poly-D-lysine coated plates. After 24 h, the medium was removed and cells were washed once with phosphate buffered saline and serum-deprived overnight in assay buffer (130 mM NaCl, 5.4 mM KCl, 1.8 mM CaCl2, 0.8 mM MgSO4, 0.9 mM NaH2PO4, 25 mM glucose, 20 mM HEPES, pH 7.4) containing bovine serum albumin (1% w/v).
On the day of the experiment, the cells seeded in black plates were treated with assay buffer containing the Ca^2+sensitive fluorescent dye Fluo-4-AM (2 μM), and probenecid (0.1 mM). After 1 h plates were washed twice with, and resuspended in, assay buffer containing probenecid (0.1 mM) using a multi plate washer. […] Fluorescence measurements were then continued every 1 S for 120 S followed by every 4 S for 240 S.
The measurements were typically made in two sequences:
Compounds of formula I were tested usually in a concentration range from 10^−9 M to 10^−5 M. In the second round, performed one hour later (to allow for equilibration), Orexin A was tested either in the absence (calibration curves, Orexin A agonist controls) or in the presence of compounds of formula I to determine antagonism.

[2] = target: T2, human orexin 1 receptors (Homo sapiens, UniProt O43613); test: Radioligand binding assay ([3H]-SB649868 competition), hOx1R; settings: competition with about 1 nM [3H]-SB649868; CHO or HEK cell membranes expressing human orexin 1 receptor
T2 sequence (O43613 1-425): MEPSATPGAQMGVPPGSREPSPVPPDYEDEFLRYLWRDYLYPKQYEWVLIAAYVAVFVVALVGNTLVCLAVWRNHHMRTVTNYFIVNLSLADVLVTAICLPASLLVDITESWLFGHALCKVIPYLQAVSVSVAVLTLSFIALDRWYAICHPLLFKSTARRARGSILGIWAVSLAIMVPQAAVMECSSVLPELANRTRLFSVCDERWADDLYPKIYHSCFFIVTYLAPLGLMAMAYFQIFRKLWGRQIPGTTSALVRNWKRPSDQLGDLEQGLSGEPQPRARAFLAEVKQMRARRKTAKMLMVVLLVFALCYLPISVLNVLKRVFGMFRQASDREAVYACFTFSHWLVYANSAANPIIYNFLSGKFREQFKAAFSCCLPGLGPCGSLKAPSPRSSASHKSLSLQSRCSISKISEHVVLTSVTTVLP
Description: (§1) The cell pellet was either stored at −80° C. or used directly. Before the experiments, cell membranes were re-suspended in binding assay buffer (10 mM HEPES, 0.5% (w/v) bovine serum albumin, pH 7.5) by homogenisation with a Polytron homogeniser at 50 Hz for 20 s. Cell membranes were also used as made available by commercial providers.
(§2) Bound radioactivity was measured, and data were analysed with the program XLFIT or Graphpad Prism. Protein concentration was determined according to the Bradford/BioRad Protein Assay Kit.
(§3) In competition experiments, cell homogenates (150 μl) were incubated in assay buffer (10 mM HEPES, pH 7.5, 0.5% (w/v) bovine serum albumin, 5 mM MgCl2, 1 mMCaCl2, and tween 0.05%) for 1 h at room temperature with about 1 nM of the radioligand [^3H]-SB649868, 66 Ci/mmole, 50 μl), and with various concentrations of compounds of the invention (50 μl) in triplicates; non-specific binding was determined in the presence of almorexant (10 μM). Reactions were terminated by vacuum filtration, 3 washes of ice cold wash buffer (Tris-HCl pH 7.4/10 mM, with NaCl 154 mM). Competition data is expressed in Table 2 as Kd [μM].

[3] = target: T1, human orexin 2 receptors; test: Radioligand binding assay ([3H]-SB649868 competition), hOx2R; settings: competition with about 1 nM [3H]-SB649868; CHO or HEK cell membranes expressing human orexin 2 receptor; read-out: binding hOx2R Kd
Description: as §1, §2
as §3, with “μM).” for “μM). Reactions were terminated by vacuum filtration, 3 washes of ice cold wash buffer (Tris-HCl pH 7.4/10 mM, with NaCl 154 mM). Competition data is expressed in Table 2 as Kd [μM].”

[4] = target: T2, human orexin 1 receptors; test: Calcium accumulation in cells (FLIPR), hOx1R; settings: for inhibition at 10 µM: read-out: FLIPR hOx1R % inhibition value

Work on `Cc1cccc(N2CCC3(CCCN(Cc4c[nH]c5ccccc45)C3=O)CC2)n1` [Example 9, 2-((1H-indol-3-yl)methyl)-9-(6-methylpyridin-2-yl)-2,9-diazaspiro[5.5]undecan-1-one] yielded a Ki [1] of 54 nM, a Kd [2] of 2430 nM and a Kd [3] of 265 nM. The Ki [4] was 1560 nM.
`Cc1ccnc(N2CCC3(CCCC(=O)N3Cc3cccc4[nH]ccc34)CC2)n1` [Example 42, 1-((1H-indol-4-yl)methyl)-9-(4-methylpyrimidin-2-yl)-1,9-diazaspiro[5.5]undecan-2-one] gave a Ki [1] of 26 nM, a Kd [2] of 5230 nM and a Kd [3] of 140 nM. For the same compound, the inhibition at 10 µM [4] was 34%.
`Cc1cc(C)nc(N2CCC3(CCCN(Cc4c[nH]c5ccc(C#N)cc45)C3=O)CC2)n1` [Example 105, 3-((9-(4,6-dimethylpyrimidin-2-yl)-1-oxo-2,9-diazaspiro[5.5]undecan-2-yl)methyl)-1H-indole-5-carbonitrile] gave a Ki [1] of 3.3 nM, a Kd [2] of 655 nM and a Kd [3] of 25 nM. For the same compound, the Ki [4] was 295 nM.
Work on `N#Cc1cccc(N2CCC3(CCCN(Cc4cccc(-c5ncccn5)c4)C3=O)CC2)n1` [Example 34, 6-(1-oxo-2-(3-(pyrimidin-2-yl)benzyl)-2,9-diazaspiro[5.5]undecan-9-yl)picolinonitrile] yielded a Ki [1] of 73 nM, a Kd [2] of 2290 nM and a Kd [3] of 674 nM. For the same compound, the Ki [4] was 554 nM.
In the case of `Cc1cnc(N2CCC3(CCCN(Cc4c[nH]c5ccccc45)C3=O)CC2)nc1C` [Example 81, 2-((1H-indol-3-yl)methyl)-9-(4,5-dimethylpyrimidin-2-yl)-2,9-diazaspiro[5.5]undecan-1-one], the Ki [1] is reported as 45 nM, the Kd [2] is reported as 798 nM and the Kd [3] is reported as 29 nM. For the same compound, the Ki [4] was 2030 nM.
`Cc1cc(C)nc(N2CCC3(CCCN(Cc4ccccc4-n4nccn4)C3=O)CC2)n1` [Example 2, 2-(2-(2H-1,2,3-triazol-2-yl)benzyl)-9-(4,6-dimethylpyrimidin-2-yl)-2,9-diazaspiro[5.5]undecan-1-one] was tested, and the Ki [1] was 86 nM, the Kd [2] was > 10000 nM and the Kd [3] was 259 nM. The inhibition at 10 µM [4] was 22%.
`COc1cncc(-c2nn(C)nc2CN2CCCC3(CCN(c4nc(C)cc(C)n4)CC3)C2=O)c1` [Example 121, 9-(4,6-dimethylpyrimidin-2-yl)-2-((5-(5-methoxypyridin-3-yl)-2-methyl-2H-1,2,3-triazol-4-yl)methyl)-2,9 diazaspiro[5.5]undecan-1-one] gave a Ki [1] of 2 nM, a Kd [2] of 196 nM and a Kd [3] of 15 nM. For the same compound, the Ki [4] was 315 nM.
Work on `Cc1cnc(-c2cccc(CN3CCCC4(CCN(c5cc(C#N)ccn5)CC4)C3=O)c2)o1` [Example 40, 2-(2-(3-(5-methyloxazol-2-yl)benzyl)-1-oxo-2,9-diazaspiro[5.5]undecan-9-yl)isonicotinonitrile] yielded a Ki [1] of 19 nM, a Kd [2] of 332 nM and a Kd [3] of 37 nM. For the same compound, the Ki [4] was 241 nM.
For `Cc1cc(C)nc(N2CCC3(CCCC(=O)N3Cc3cccc4[nH]ccc34)CC2)n1` [Example 3, 1-((1H-indol-4-yl)methyl)-9-(4,6-dimethylpyrimidin-2-yl)-1,9-diazaspiro[5.5]undecan-2-one], the Ki [1] was 0.9 nM, the Kd [2] was 483 nM and the Kd [3] was 12 nM. It also gave a Ki [4] of 381 nM.
`Cc1cc(C)nc(N2CCC3(CCCN(Cc4nc(C)sc4-c4ccccc4)C3=O)CC2)n1` [Example 109, 9-(4,6-dimethylpyrimidin-2-yl)-2-((2-methyl-5-phenylthiazol-4-yl)methyl)-2,9-diazaspiro[5.5]undecan-1-one] was tested, and the Ki [1] was 42 nM, the Kd [2] was 2560 nM and the Kd [3] was 188 nM. It also gave a Ki [4] of 1370 nM.
For `Cc1cc(C)nc(N2CCC3(CCCN(Cc4cccc(-c5ncccn5)c4)C3=O)CC2)c1` [Example 74, 9-(4,6-dimethylpyridin-2-yl)-2-(3-(pyrimidin-2-yl)benzyl)-2,9-diazaspiro[5.5]undecan-1-one], the Ki [1] was 160 nM, the Kd [2] was > 10000 nM and the Kd [3] was 338 nM. It also gave a Ki [4] of 2150 nM.
With `Cc1cc(C)nc(N2CCC3(CCCN(Cc4c[nH]c5c(C)cccc45)C3=O)CC2)n1` [Example 103, 9-(4,6-dimethylpyrimidin-2-yl)-2-((7-methyl-1H-indol-3-yl)methyl)-2,9-diazaspiro[5.5]undecan-1-one] the Ki [1] was 26 nM, the Kd [2] was 1770 nM and the Kd [3] was 35 nM. The Ki [4] was 1900 nM.
With `Cc1cncc(N2CCC3(CCCC(=O)N3Cc3c[nH]c4ccccc34)CC2)n1` [Example 7, 1-((1H-indol-3-yl)methyl)-9-(6-methylpyrazin-2-yl)-1,9-diazaspiro[5.5]undecan-2-one] the Ki [1] was 86 nM, the Kd [2] was 7440 nM and the Kd [3] was 698 nM. It also gave an inhibition at 10 µM [4] of 14%.
With `N#Cc1ccnc(N2CCC3(CCCC(=O)N3Cc3cccc4[nH]ccc34)CC2)c1` [Example 91, 2-(1-((1H-indol-4-yl)methyl)-2-oxo-1,9-diazaspiro[5.5]undecan-9-yl)isonicotinonitrile] the Ki [1] was 17 nM, the Kd [2] was > 10000 nM and the Kd [3] was 270 nM. It also gave an inhibition at 10 µM [4] of 26%.
For `Cc1cc(C#N)nc(N2CCC3(CCCN(Cc4cccc(-c5ncccn5)c4)C3=O)CC2)n1` [Example 32, 6-methyl-2-(1-oxo-2-(3-(pyrimidin-2-yl)benzyl)-2,9-diazaspiro[5.5]undecan-9-yl)pyrimidine-4-carbonitrile], the Ki [1] was 59 nM, the Kd [2] was > 10000 nM and the Kd [3] was 383 nM. The Ki [4] was 1860 nM.
`COCc1cccc(-c2ocnc2CN2CCCC3(CCN(c4nc(C)cc(C)n4)CC3)C2=O)c1` [Example 123, 9-(4,6-dimethylpyrimidin-2-yl)-2-((5-(3-(methoxymethyl)phenyl)oxazol-4-yl)methyl)-2,9-diazaspiro[5.5]undecan-1-one] gave a Ki [1] of 18 nM, a Kd [2] of 3240 nM and a Kd [3] of 71 nM. The Ki [4] was 1780 nM.
In the case of `Cc1ccnc(N2CCC3(CCCN(Cc4cccc(-c5ncc(C)o5)c4)C3=O)CC2)n1` [Example 38, 2-(3-(5-methyloxazol-2-yl)benzyl)-9-(4-methylpyrimidin-2-yl)-2,9-diazaspiro[5.5]undecan-1-one], the Ki [1] is reported as 43 nM, the Kd [2] is reported as 1190 nM and the Kd [3] is reported as 177 nM. It also gave a Ki [4] of 924 nM.
Compound `Cc1cc(C)nc(N2CCC3(CCCN(Cc4n[nH]cc4-c4ccccc4)C3=O)CC2)n1` [Example 106, 9-(4,6-dimethylpyrimidin-2-yl)-2-((4-phenyl-1H-pyrazol-3-yl)methyl)-2,9-diazaspiro[5.5]undecan-1-one] has a Ki [1] of 3.3 nM, a Kd [2] of 1830 nM and a Kd [3] of 49 nM. The Ki [4] was 763 nM.
In the case of `O=C1N(Cc2c[nH]c3ccccc23)CCCC12CCN(c1nccc(Cl)n1)CC2` [Example 51, 2-((1H-indol-3-yl)methyl)-9-(4-chloropyrimidin-2-yl)-2,9-diazaspiro[5.5]undecan-1-one], the Ki [1] is reported as 84 nM, the Kd [2] is reported as 4820 nM and the Kd [3] is reported as 700 nM. It also gave an inhibition at 10 µM [4] of 44%.
`COc1ccnc(N2CCC3(CCCN(Cc4c[nH]c5ccccc45)C3=O)CC2)n1` [Example 13, 2-((1H-indol-3-yl)methyl)-9-(4-methoxypyrimidin-2-yl)-2,9-diazaspiro[5.5]undecan-1-one] was tested, and the Kd [2] was 924 nM, the Kd [3] was 74 nM and the Ki [4] was 527 nM.
In the case of `COC(=O)c1ccc2[nH]cc(CN3CCCC4(CCN(c5nc(C)cc(C)n5)CC4)C3=O)c2c1` [Example 115, Methyl 3-((9-(4,6-dimethylpyrimidin-2-yl)-1-oxo-2,9-diazaspiro[5.5]undecan-2-yl)methyl)-1H-indole-5-carboxylate], the Kd [2] is reported as 52 nM and the Kd [3] is reported as 3 nM.
